How the values were obtained:
Type in all cases: binding
PCAF bromodomain [1] = biological target: T1, PCAF bromodomain (Homo sapiens, UniProt Q92831); assay: SPR (Biacore) of TINS fragment hits on immobilized PCAF; settings: for Kd: SPR, 20 °C, six concentrations, aqueous buffer without DMSO; for LE: from SPR KD and heavy atom count
T1 construct: made in house
T1 sequence (Q92831 723-827 limits assumed): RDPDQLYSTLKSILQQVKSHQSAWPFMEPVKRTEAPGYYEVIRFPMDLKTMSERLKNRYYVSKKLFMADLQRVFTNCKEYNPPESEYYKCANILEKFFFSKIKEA
Protocol: Recombinant PCAF was biotinylated on the N-terminal AVI tag in vivo. Purified, biotinylated PCAF was captured onto a NeutraAvidin-coated CM5 sensor chip surface in 20 mM sodium phosphate pH7.5, 150 mM NaCl, 2 mM DTT, and 0.05% P20 Tween. This buffer was subsequently used for all studies. The immobilization level was 10150 RU. All SPR experiments were performed using a Biacore T200 instrument at 20 °C. Fragment hits from TINS were directly solubilized in the running buffer. Each fragment was titrated at six different concentrations for KD determination. An acetyl-Lys 16 peptide derived from H4 was used to monitor the ligand binding capacity of the immobilized PCAF bromodomain at regular intervals.

BAZ2BA = BAZ2BA (Homo sapiens, UniProt Q9UIF8); assay: Alphascreen assay BAZ2BA
CECR2A = CECR2A (Homo sapiens, UniProt Q9BXF3); assay: Alphascreen assay CECR2A
PCAF bromodomain [2] = biological target: T2, PCAF bromodomain (Homo sapiens, UniProt Q92831); assay: Thermal stability shift assay (DSF), PCAF bromodomain; settings: compound 1 mM, protein 2 μM, average of triplicates
T2 construct: The PCAF bromodomain (aa 715–831) containing an N-terminal His6-tag was recombinantly expressed in Escherichia coli Rosetta; His6 (N, cleaved yes); made in house; host or cells: Escherichia coli Rosetta
T2 sequence (Q92831 715-831): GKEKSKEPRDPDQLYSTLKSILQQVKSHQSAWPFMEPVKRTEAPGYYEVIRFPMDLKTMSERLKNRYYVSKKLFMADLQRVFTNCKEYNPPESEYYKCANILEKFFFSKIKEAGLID

BRD9A = biological target: T3, BRD9A (Homo sapiens, UniProt Q9H8M2); assay: Alphascreen assay BRD9A; settings: for % Inhibition at 25 µM / inhibition at 25 µM: BRD9A; for IC50: read-out: BRD9 IC50
T3 sequence (Q9H8M2 1-597): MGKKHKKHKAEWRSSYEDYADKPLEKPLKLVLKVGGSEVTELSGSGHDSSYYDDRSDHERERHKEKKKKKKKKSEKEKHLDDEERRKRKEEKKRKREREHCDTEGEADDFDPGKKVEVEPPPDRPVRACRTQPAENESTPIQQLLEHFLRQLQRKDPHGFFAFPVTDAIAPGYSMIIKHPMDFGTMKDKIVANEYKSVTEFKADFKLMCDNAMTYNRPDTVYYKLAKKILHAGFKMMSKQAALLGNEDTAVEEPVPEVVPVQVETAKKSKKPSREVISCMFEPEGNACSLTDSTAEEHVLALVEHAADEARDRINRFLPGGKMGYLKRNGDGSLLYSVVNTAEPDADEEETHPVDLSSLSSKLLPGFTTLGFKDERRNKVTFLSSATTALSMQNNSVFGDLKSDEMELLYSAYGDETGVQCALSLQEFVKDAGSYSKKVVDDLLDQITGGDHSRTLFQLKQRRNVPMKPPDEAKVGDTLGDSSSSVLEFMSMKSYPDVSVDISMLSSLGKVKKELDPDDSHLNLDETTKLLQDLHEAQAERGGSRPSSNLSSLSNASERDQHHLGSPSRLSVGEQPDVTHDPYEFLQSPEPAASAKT

ATAD2A = biological target: T4, ATAD2A (Homo sapiens, UniProt Q6PL18); assay: Alphascreen assay ATAD2A
T4 sequence (Q6PL18 1-1390): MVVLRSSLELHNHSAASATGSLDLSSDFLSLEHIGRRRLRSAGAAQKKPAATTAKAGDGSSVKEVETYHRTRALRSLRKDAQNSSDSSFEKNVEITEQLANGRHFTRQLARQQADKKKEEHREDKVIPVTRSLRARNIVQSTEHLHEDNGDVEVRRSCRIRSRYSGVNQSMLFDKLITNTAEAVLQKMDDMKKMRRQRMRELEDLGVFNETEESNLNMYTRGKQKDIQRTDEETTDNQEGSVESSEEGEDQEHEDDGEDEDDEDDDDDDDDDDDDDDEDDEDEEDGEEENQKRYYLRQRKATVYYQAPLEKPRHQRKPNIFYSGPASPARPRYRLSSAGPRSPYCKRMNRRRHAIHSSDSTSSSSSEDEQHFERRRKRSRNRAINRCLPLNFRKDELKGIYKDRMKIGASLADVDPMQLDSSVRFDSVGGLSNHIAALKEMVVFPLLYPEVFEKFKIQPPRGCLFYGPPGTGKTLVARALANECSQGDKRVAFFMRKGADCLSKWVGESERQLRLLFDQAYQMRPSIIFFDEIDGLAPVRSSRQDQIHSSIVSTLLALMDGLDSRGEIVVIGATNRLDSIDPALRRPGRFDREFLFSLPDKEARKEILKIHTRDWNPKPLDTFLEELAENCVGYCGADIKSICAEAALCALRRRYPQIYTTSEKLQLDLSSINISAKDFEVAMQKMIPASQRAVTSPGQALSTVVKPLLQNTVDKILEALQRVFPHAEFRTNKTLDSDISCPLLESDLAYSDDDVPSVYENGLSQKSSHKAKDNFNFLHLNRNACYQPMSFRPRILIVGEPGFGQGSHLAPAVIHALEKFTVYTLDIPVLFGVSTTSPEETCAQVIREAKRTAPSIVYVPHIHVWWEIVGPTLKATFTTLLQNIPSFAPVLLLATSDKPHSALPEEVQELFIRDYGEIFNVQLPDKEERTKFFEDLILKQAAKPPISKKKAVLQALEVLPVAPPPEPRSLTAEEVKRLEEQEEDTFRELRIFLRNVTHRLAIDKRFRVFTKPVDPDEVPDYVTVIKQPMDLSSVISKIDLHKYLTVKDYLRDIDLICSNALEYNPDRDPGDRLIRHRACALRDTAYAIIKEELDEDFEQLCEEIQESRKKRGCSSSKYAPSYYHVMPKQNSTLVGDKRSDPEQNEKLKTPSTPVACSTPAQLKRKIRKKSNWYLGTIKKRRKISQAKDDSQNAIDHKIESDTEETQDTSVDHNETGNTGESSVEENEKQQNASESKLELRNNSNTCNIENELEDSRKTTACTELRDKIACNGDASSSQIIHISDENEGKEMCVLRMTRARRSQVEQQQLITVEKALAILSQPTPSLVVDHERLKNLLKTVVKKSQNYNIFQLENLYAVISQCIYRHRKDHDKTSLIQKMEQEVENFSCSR

BAZ1BA = biological target: T5, BAZ1BA (Homo sapiens, UniProt Q9UIG0); assay: Alphascreen assay BAZ1BA
T5 sequence (Q9UIG0 1-1483): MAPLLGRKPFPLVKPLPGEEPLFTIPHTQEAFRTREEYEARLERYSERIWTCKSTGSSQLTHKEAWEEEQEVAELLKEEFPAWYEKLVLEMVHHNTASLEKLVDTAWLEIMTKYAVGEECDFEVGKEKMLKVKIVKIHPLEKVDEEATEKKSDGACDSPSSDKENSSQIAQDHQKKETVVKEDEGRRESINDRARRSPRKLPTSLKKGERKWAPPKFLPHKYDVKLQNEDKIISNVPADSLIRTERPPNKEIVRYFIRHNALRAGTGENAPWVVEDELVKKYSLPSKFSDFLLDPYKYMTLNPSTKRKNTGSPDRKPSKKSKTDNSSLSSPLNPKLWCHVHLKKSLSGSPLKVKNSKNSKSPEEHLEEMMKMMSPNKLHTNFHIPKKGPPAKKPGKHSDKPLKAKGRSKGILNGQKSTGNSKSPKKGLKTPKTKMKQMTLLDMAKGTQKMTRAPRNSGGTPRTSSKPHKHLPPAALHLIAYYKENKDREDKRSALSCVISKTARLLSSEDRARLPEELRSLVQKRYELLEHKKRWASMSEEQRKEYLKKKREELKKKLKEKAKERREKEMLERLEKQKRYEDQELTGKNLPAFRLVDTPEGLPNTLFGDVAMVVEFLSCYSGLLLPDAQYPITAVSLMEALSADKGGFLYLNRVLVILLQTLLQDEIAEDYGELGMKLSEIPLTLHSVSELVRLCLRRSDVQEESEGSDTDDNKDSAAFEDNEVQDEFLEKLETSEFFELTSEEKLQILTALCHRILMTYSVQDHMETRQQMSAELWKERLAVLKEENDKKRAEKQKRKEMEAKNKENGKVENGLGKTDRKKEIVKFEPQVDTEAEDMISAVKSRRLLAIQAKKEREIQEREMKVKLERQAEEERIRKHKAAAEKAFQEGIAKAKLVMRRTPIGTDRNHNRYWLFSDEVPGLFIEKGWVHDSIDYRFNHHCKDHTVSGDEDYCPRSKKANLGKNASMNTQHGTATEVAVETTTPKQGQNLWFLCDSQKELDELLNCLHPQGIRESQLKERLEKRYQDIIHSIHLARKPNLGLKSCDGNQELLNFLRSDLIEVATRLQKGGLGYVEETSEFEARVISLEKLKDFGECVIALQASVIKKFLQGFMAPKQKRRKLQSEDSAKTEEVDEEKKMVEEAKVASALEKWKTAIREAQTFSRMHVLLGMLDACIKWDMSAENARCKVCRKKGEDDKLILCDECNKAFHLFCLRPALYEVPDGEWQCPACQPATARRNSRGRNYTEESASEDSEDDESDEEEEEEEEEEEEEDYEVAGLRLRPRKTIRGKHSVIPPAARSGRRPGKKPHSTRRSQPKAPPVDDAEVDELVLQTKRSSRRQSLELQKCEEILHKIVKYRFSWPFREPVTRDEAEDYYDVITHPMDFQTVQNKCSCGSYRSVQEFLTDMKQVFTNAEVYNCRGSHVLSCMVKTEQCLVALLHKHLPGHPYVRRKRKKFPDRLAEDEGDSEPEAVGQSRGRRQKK

BRPF3A = biological target: T6, BRPF3A (Homo sapiens, UniProt Q9ULD4); assay: Alphascreen assay BRPF3A
T6 sequence (Q9ULD4 1-1205): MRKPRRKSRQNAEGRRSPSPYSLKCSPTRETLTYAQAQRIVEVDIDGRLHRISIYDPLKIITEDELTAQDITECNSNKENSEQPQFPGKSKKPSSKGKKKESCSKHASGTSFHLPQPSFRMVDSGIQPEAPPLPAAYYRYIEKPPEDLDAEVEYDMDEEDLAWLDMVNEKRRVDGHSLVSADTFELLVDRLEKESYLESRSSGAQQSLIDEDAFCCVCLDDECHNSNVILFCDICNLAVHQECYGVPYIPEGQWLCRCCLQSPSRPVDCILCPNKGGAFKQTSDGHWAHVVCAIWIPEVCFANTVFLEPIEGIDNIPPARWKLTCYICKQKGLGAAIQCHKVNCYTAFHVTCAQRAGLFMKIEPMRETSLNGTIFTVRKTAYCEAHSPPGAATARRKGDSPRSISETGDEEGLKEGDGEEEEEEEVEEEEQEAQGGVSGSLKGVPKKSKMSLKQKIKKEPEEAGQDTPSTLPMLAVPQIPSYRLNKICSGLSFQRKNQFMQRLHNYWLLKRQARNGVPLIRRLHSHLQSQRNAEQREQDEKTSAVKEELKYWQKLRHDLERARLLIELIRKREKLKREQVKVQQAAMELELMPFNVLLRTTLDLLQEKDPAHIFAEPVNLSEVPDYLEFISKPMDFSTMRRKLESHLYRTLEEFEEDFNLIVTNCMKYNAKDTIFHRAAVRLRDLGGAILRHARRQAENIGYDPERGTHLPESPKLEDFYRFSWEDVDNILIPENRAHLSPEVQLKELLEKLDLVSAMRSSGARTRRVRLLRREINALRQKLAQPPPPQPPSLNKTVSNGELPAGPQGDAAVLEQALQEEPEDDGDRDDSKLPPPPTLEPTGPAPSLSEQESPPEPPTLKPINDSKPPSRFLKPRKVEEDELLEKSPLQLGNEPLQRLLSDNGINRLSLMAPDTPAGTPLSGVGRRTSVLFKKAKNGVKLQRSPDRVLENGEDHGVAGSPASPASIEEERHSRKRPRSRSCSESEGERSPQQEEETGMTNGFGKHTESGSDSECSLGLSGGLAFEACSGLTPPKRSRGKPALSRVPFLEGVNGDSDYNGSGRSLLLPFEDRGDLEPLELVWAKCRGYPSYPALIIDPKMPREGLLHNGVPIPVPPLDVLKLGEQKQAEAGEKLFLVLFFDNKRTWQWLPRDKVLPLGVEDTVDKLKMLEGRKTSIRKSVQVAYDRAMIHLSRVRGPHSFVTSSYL

PCAF bromodomain [3] = biological target: T2, PCAF bromodomain; assay: Isothermal titration calorimetry (ITC) with PCAF; settings: from ITC Kd

Sequence of CECR2A (Q9BXF3 whole entry): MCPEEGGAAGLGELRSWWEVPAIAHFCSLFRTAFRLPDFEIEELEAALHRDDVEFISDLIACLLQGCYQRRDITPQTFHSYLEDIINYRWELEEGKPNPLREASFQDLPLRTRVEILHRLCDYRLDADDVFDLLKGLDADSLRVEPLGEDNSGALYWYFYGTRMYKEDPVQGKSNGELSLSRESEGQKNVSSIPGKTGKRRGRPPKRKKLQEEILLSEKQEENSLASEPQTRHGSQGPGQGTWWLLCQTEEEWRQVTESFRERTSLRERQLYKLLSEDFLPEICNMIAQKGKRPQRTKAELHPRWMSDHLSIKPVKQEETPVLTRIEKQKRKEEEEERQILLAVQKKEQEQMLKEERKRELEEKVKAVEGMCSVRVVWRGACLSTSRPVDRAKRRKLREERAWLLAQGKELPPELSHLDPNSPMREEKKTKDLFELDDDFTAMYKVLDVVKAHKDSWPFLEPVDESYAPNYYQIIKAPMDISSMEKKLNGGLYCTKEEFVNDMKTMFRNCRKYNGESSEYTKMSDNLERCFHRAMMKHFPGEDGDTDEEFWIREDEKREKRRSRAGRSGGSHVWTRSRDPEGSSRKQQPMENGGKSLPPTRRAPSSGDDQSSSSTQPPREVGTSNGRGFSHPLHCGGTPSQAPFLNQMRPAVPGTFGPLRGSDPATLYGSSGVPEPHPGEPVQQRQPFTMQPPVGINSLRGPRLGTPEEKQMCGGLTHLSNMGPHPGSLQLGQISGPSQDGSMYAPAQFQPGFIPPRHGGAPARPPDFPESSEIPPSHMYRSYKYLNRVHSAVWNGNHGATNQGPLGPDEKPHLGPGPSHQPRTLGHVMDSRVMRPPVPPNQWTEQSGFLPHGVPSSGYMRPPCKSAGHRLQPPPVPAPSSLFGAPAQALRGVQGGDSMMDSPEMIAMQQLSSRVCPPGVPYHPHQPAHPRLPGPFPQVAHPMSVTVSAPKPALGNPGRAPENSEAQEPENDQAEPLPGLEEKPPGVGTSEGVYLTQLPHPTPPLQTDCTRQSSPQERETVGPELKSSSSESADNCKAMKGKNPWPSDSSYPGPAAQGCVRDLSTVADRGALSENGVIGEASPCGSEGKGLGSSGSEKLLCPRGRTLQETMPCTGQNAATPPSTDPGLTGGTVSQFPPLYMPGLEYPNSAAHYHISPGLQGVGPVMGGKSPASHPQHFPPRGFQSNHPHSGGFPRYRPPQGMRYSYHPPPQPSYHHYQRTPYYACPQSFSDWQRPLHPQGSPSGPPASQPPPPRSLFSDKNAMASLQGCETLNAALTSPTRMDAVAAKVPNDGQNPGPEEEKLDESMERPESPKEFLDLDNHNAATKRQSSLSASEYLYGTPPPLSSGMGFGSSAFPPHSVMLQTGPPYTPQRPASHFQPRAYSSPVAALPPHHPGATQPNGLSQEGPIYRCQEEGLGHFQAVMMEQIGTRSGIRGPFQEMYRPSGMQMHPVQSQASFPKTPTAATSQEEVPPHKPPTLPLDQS
Sequence of BAZ2BA (Q9UIF8 whole entry): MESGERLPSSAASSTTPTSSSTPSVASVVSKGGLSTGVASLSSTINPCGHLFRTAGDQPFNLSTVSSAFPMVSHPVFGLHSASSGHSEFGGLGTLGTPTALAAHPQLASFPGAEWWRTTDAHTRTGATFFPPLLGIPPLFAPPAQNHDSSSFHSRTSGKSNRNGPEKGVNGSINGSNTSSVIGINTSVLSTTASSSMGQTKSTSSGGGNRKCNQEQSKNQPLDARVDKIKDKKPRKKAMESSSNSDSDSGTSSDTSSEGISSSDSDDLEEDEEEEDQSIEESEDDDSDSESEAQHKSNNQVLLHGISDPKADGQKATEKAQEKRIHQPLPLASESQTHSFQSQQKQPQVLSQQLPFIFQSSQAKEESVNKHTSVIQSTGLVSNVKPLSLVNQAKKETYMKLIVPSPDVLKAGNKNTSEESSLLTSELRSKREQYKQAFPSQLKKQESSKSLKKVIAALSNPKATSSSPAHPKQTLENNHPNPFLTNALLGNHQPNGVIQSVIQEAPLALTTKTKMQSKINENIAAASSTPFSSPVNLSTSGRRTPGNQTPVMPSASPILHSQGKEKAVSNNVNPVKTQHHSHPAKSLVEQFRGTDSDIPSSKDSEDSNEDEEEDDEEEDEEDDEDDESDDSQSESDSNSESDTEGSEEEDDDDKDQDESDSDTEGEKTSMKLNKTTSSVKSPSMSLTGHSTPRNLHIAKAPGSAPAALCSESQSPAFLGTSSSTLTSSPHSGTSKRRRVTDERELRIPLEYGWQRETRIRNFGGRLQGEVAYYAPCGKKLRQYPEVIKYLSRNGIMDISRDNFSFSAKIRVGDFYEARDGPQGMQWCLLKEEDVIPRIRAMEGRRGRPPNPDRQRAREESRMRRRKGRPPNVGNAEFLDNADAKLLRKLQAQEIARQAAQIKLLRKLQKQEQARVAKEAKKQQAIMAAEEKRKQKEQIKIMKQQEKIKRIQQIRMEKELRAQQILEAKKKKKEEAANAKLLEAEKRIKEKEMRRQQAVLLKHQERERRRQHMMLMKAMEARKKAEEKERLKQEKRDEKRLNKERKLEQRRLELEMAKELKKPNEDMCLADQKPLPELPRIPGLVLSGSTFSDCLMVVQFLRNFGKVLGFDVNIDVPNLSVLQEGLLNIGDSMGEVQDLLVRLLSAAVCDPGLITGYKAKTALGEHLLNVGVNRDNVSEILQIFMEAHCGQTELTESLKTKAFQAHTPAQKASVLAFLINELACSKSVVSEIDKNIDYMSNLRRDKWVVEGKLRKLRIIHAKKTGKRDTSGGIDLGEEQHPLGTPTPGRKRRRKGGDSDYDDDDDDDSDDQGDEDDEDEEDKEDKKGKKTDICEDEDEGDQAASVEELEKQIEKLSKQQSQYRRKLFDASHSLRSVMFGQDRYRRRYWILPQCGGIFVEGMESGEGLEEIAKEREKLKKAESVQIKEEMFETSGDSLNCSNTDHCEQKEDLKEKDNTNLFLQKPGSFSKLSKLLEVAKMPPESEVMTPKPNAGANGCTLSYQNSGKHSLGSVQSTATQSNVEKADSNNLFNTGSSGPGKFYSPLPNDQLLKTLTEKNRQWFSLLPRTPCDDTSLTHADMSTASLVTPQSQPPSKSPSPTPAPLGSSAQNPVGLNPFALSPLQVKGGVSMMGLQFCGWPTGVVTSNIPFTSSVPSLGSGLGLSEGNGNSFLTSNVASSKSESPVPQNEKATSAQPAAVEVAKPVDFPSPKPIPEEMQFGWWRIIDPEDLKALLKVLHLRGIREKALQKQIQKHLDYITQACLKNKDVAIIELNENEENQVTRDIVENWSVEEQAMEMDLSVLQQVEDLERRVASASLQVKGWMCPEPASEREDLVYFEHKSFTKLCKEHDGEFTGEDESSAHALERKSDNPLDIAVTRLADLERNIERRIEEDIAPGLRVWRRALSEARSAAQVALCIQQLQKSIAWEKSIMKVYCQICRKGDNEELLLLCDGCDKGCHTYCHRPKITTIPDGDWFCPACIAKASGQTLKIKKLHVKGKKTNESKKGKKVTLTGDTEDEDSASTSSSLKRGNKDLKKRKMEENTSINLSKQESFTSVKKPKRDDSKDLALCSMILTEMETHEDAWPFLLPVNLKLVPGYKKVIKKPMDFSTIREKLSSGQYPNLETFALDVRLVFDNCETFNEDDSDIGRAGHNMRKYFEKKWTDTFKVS

Row | SMILES | Kd (PCAF bromodomain [1]) [µM] | LE (PCAF bromodomain [1]) | inhibition at 25 µM (BAZ2BA) [%] | inhibition at 25 µM (CECR2A) [%] | % Inhibition at 25 µM (BRD9A) | inhibition at 25 µM (BRD9A) [%] | IC50 (BRD9A) [µM] | inhibition at 25 µM (ATAD2A) [%] | inhibition at 25 µM (BAZ1BA) [%] | inhibition at 25 µM (BRPF3A) [%] | also measured
1 | Cc1c(N)c(=O)n(-c2ccccc2)n1C [compound 9] | 2680 | 0.23 |  |  |  |  |  |  |  |  | 
2 | NC1CCN(C(=O)C2CC2)CC1 [compound 10] | 6910 | 0.24 |  |  |  |  |  |  |  |  | 
3 | Cc1nn(CCO)c2c1C(=O)CCC2 [compound 11] | 488 | 0.32 |  |  |  |  |  |  |  |  | 
4 | CNC(=O)c1cc(OCC(=O)Nc2ccccc2)ccc1OC1CCOCC1 [compound 14, N-methyl-5-(2-oxo-2-(phenylamino)ethoxy)-2-((tetrahydro-2H-pyran-4-yl)oxy)benzamide] |  |  |  |  |  |  |  |  |  |  | ligand efficiency (LE) (PCAF bromodomain [3]): 0.24

More lines, main results first:

Row | Kd (PCAF bromodomain [1]) [µM] | LE (PCAF bromodomain [1]) | inhibition at 25 µM (BAZ2BA) [%] | inhibition at 25 µM (CECR2A) [%] | % Inhibition at 25 µM (BRD9A) | inhibition at 25 µM (BRD9A) [%] | IC50 (BRD9A) [µM] | inhibition at 25 µM (ATAD2A) [%] | inhibition at 25 µM (BAZ1BA) [%] | inhibition at 25 µM (BRPF3A) [%] | SMILES | also measured
5 |  |  | -2.6 | 38.7 | strong inhibition | 82.8 | 12.5 | 2.4 | 0.7 | 46.8 | CC(=O)Nc1ccc2c(C)cc(=O)n(C)c2c1 [compound 12, N-(1,4-dimethyl-2-oxo-1,2-dihydroquinolin-7-yl)acetamide] | ΔTm (°C) at 1 mM (± SEM) (PCAF bromodomain [2]): 2.6–2.9 °C
6 |  |  | 5.3 | 3.9 | strong inhibition | 84.1 | 5.7 | 1.4 | -0.2 | 28.7 | Cc1cc(=O)n(C)c2cc(NS(C)(=O)=O)ccc12 [compound 13, N-(1,4-dimethyl-2-oxo-1,2-dihydroquinolin-7-yl)methanesulfonam] | 

Source: publication PMC4770306, “Structure-Based Identification of Inhibitory Fragments Targeting the p300/CBP-Associated Factor Bromodomain” (Journal of Medicinal Chemistry, 2016)
